Data reported in patent US20230218632A1, “CYCLIC SULFONAMIDE DERIVATIVES AS TRAP1 MODULATORS AND USES THEREOF” (Amathus Therapeutics, Inc., priority 2020, published 2023).
pEC50: −log10 of the molar value.

Molecular target: T1, TRAP1 enzyme (Homo sapiens, UniProt Q12931)
T1 sequence (Q12931 60-704): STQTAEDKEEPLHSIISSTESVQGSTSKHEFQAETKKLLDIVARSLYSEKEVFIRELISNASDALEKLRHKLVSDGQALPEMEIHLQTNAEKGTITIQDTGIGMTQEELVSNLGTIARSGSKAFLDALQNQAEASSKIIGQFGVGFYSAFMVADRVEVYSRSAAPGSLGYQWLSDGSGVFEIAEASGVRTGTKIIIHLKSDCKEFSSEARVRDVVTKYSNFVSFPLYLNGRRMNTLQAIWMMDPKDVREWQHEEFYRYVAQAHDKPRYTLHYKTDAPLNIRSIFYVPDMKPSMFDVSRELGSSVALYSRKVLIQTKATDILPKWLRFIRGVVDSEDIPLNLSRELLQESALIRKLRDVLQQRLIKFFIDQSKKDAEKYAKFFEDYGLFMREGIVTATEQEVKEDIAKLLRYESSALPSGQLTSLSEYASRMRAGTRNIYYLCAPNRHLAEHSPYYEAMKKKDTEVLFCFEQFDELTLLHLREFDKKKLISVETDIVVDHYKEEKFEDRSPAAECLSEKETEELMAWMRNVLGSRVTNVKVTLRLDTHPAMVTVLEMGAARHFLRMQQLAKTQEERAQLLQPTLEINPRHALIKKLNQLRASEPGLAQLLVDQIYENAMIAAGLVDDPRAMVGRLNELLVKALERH
Test: ADP Glo assay (ATPase activity of TRAP1)
Format: biochemical
Details: for pEC50: 150 nM Trap1, 20 µM ATP, concentration for half maximal activation, read-out: ADP GLO DRC: GeoMean EC50; for Emax: maximal percent activation, read-out: ADP GLO DRC: Mean Emax
Procedure: Potency of test compounds to modulate the ATPase activity of TRAP1 enzyme was evaluated using ADP Glo assay. The assay is based on quantification of the ADP generated from ATP in the ATPase reaction. The assay is performed in two steps; first, after the ATPase reaction, an equal volume of ADP-Glo™ Reagent is added to terminate the ATPase reaction and deplete the remaining ATP. Second, the Kinase Detection Reagent is added to simultaneously convert ADP to ATP and allow the newly synthesized ATP to be measured using a luciferase/luciferin reaction.
All the assays were carried out in a 384-well Proxiplate. The buffer used was 25 mM Pipes pH-7.5, 40 mM KCl, 0.05 mM MgCl2, 0.025 % BSA, 0.316 mM EGTA, 0.003% Empigen, 0.01% Igepal. 150 nM Trap1 enzyme was incubated with various concentrations of the test compound (0.79 µM - 100 µM) at 37° C. for 30 mins (except in blank wells). 20 µM ATP was added to each well to start the reaction. The plate was spun for 1 min at 1200 rpm and then incubated at 37° C. for 60 mins. 5 µl of ADP Glo reagent was added to all the wells and spun the plate for 1 min at 1200 rpm and kept it on a shaker at ambient temperature for 60 mins. 10 µl of kinase detection mix was added to all the wells and the plate was read for Luminescence at 495 nm. The amount of ADP released was estimated from ATP/ADP standard curve generated at the same experimental conditions. Emax (Maximal percent activation) and EC50 (concentration for half maximal activation ) were estimated by fitting the dose response data to a sigmoidal curve fitting equation using Graphpad Prism software V. 8.

pEC50 | Emax [%] | SMILES
4.00 to 4.52 | 150 to 200 | Cc1oncc1C(=O)Nc1ccc2c(c1)S(=O)(=O)N(c1ccc(C(F)(F)F)cc1)CCO2 [Compound 2345]
4.00 to 4.52 | 150 to 200 | O=C(Nc1ccc2c(c1)S(=O)(=O)N(c1ccc(C(F)(F)F)cc1)CCO2)c1cccnc1O [Compound 2280]
> 4.70 | 150 to 200 | Cn1ccc(C(=O)Nc2ccc3c(c2)S(=O)(=O)N(c2ccc(C(F)(F)F)cc2)CCO3)n1 [Compound 2294]
4.00 to 4.52 | > 200 | Cc1c(C(=O)Nc2ccc3c(c2)S(=O)(=O)N(c2ccc(C(F)(F)F)cc2)CCO3)cnn1C [Compound 2295]
4.00 to 4.52 | > 200 | O=C(Nc1ccc2c(c1)S(=O)(=O)N(c1ccc(C(F)(F)F)cc1)CCO2)c1csc2c1CNCC2 [Compound 2433]
4.52 to 4.70 | 150 to 200 | Cn1cccc(C(=O)Nc2cnc3c(c2)S(=O)(=O)N(c2ccc(C(F)(F)F)cc2)CCO3)c1=O [Compound 2462]
4.00 to 4.52 | 129 to 149 | O=C(Nc1ccc2c(c1)S(=O)(=O)N(c1ccc(C(F)(F)F)cc1)CCO2)c1csc(-c2ccccc2)n1 [Compound 2503]
> 4.70 | 150 to 200 | O=C(Nc1ccc2c(c1)S(=O)(=O)N(c1ccc(C(F)(F)F)cc1)CCO2)c1cnc[nH]c1=O [Compound 2334]
4.00 to 4.52 | > 200 | Cn1c(C(=O)Nc2ccc3c(c2)S(=O)(=O)N(c2ccc(C(F)(F)F)cc2)CCO3)cnc1O [Compound 2351]
4.00 to 4.52 | 150 to 200 | Cc1ncoc1C(=O)Nc1ccc2c(c1)S(=O)(=O)N(c1ccc(C(F)F)cc1)CCO2 [Compound 2443]
> 4.70 | 129 to 149 | Cc1cc(C(=O)Nc2ccc3c(c2)S(=O)(=O)N(c2ccc(C(F)(F)F)cc2)CCO3)n(C)n1 [Compound 2339]
4.00 to 4.52 | 150 to 200 | CN1CCCC1C(=O)Nc1ccc2c(c1)S(=O)(=O)N(c1ccc(C(F)(F)F)cc1)CCO2 (stereo not shown) [Compound 2417]

More lines, now with the values behind:

SMILES | pEC50 | Emax [%]
CC(C)c1scnc1C(=O)Nc1ccc2c(c1)S(=O)(=O)N(c1ccc(C(F)(F)F)cc1)CCO2 [Compound 2085, N-(1,1-Dioxido-2-(4-(Trifluoromethyl)phenyl)-3,4-Dihydro-2H-Benzo[b][1,4,5]Oxathiazepin-8-yl)-5-Isopropylthiazole-4-Carboxamide] | 4.00 to 4.52 | 150 to 200
O=C(Nc1ccc2c(c1)S(=O)(=O)N(c1ccc(C(F)(F)F)cc1)CCO2)c1ccc(O)nn1 [Compound 2194] | > 4.70 | 129 to 149
O=C(Nc1ccc2c(c1)S(=O)(=O)N(c1ccc(C(F)(F)F)cc1)CCO2)c1cc[nH]c(=O)c1 [Compound 2187] | 4.00 to 4.52 | > 200
O=C(Nc1ccc2c(c1)S(=O)(=O)N(c1ccc(C(F)(F)F)cc1)CCO2)c1ccncn1 [Compound 2175] | > 4.70 | 129 to 149
O=C(Nc1ccc2c(c1)S(=O)(=O)N(c1ccc(C(F)(F)F)cc1)CCO2)c1cc(=O)cco1 [Compound 2190] | 4.00 to 4.52 | > 200
CCc1nn(C)cc1C(=O)Nc1ccc2c(c1)S(=O)(=O)N(c1ccc(C(F)(F)F)cc1)CCO2 [Compound 2265] | > 4.70 | 150 to 200
Cc1cnccc1C(=O)Nc1ccc2c(c1)S(=O)(=O)N(c1ccc(C(F)(F)F)cc1)CCO2 [Compound 2199] | 4.52 to 4.70 | 150 to 200
Cc1nnccc1C(=O)Nc1ccc2c(c1)S(=O)(=O)N(c1ccc(C(F)(F)F)cc1)CCO2 [Compound 2242] | 4.00 to 4.52 | > 200
O=C(Nc1ccc2c(c1)S(=O)(=O)N(c1ccc(C(F)(F)F)cc1)CCO2)c1cccnc1 [Compound 2240] | 4.00 to 4.52 | 150 to 200
COc1nccnc1C(=O)Nc1ccc2c(c1)S(=O)(=O)N(c1ccc(C(F)(F)F)cc1)CCO2 [Compound 2230] | 4.52 to 4.70 | 150 to 200
Cc1ncc(C(=O)Nc2ccc3c(c2)S(=O)(=O)N(c2ccc(C(F)(F)F)cc2)CCO3)cn1 [Compound 2200] | 4.00 to 4.52 | 150 to 200
